ChEMBL document CHEMBL2021926, “Serendipity in discovery of proteasome inhibitors” (Bioorg Med Chem Lett, 2012)

Legend:
[1] = Inhibition of chymotrypsin-like activity of 26S proteasome
[2] = Inhibition of chymotrypsin-like activity of human liver 26S proteasome using Suc-LLVY-AMC substrate
[3] = Inhibition of chymotrypsin-like activity of 26S proteasome in human Molt4 cells using MeOSuc-Phe-Leu-Phe-AFC substrate; type: cell-based; details: MOLT-4

Row | SMILES | IC50 [2] [nM] | EC50 [3] [nM] | IC50 [1] [nM]
1 | CC(C)C[C@@H](C=O)NC(=O)[C@H](CCCN/C(N)=N/[N+](=O)[O-])NC(=O)C(CCCCCCCCN1C(=O)c2ccccc2C1=O)C1CCCC1 (some centres undefined) |  |  | 2
2 | CC(C)C[C@@H](C=O)NC(=O)[C@H](CCCN/C(N)=N/[N+](=O)[O-])NC(=O)C(CCCCCCCCC#N)C1CCCC1 (some centres undefined) |  |  | 6
3 | CC(C)C[C@H](NC(=O)[C@H](CCCN/C(N)=N/[N+](=O)[O-])NC(=O)C(CCCCCCCCC#N)C1CCCC1)C(=O)C(=O)NCCNS(=O)(=O)c1ccccc1 (some centres undefined) |  |  | 1
4 | CC(C)C[C@H](NC(=O)[C@H](CCCN/C(N)=N/[N+](=O)[O-])NC(=O)C(CCCCCCCCC#N)C1CCCC1)B1OC(C)(C)C(C)(C)O1 (some centres undefined) |  |  | 6
5 | CC(C)C[C@H](NC(=O)[C@H](CCCN/C(N)=N/[N+](=O)[O-])NC(=O)C(CCCCCCCCN1C(=O)c2ccccc2C1=O)C1CCCC1)B1OC2C[C@@H]3C[C@@H](C3(C)C)[C@]2(C)O1 (some centres undefined) | 3.5 | 70 | 
6 | CC(C)C[C@H](NC(=O)[C@@H](NC(=O)C(CCCCCCCCN1C(=O)c2ccccc2C1=O)C1CCCC1)[C@@H](C)O)B1O[C@@H]2C[C@@H]3C[C@@H](C3(C)C)[C@]2(C)O1 (mixture of isomers) | 7 | 100 | 
7 | CC(C)C[C@H](NC(=O)C(NC(=O)[C@H](CC(C)C)NC(=O)OCc1ccccc1)C(C)O)B1O[C@@H]2C[C@@H]3C[C@@H](C3(C)C)[C@]2(C)O1 (single isomer, unassigned) | 1 | 120 | 
8 | CC(C)C[C@H](NC(=O)[C@H](Cc1ccccc1)NC(=O)c1cnccn1)B(O)O [BORTEZOMIB] | 4 | 21 | 

Second part, led by results:

Row | IC50 [2] [nM] | EC50 [3] [nM] | SMILES | IC50 [1] [nM]
9 | > 10 |  | COCCOCCOCC(=O)N[C@H](C(=O)N[C@@H](CC(C)C)B1O[C@@H]2C[C@@H]3C[C@@H](C3(C)C)[C@]2(C)O1)[C@@H](C)O | 
10 | > 10 |  | CC(C)C[C@H](NC(=O)[C@@H](NC(=O)OC(C)(C)C)[C@@H](C)O)B1O[C@@H]2C[C@@H]3C[C@@H](C3(C)C)[C@]2(C)O1 | 
11 | > 10 |  | CC(C)C[C@H](NC(=O)[C@@H](NC(=O)OCc1ccccc1)[C@@H](C)O)B1O[C@@H]2C[C@@H]3C[C@@H](C3(C)C)[C@]2(C)O1 | 
12 | > 10 |  | CC(C)C[C@H](NC(=O)[C@@H](N)[C@@H](C)O)B1O[C@@H]2C[C@@H]3C[C@@H](C3(C)C)[C@]2(C)O1 | 
13 | > 10 |  | CC(C)C[C@H](NC(=O)[C@@H](NC(=O)c1ccccc1)[C@@H](C)O)B1O[C@@H]2C[C@@H]3C[C@@H](C3(C)C)[C@]2(C)O1 | 
14 | > 10 |  | CCCCCC(=O)N[C@H](C(=O)N[C@@H](CC(C)C)B1O[C@@H]2C[C@@H]3C[C@@H](C3(C)C)[C@]2(C)O1)[C@@H](C)O | 
15 | > 10 |  | CC(C)C[C@H](NC(=O)[C@@H](NC(=O)c1cnccn1)[C@@H](C)O)B1O[C@@H]2C[C@@H]3C[C@@H](C3(C)C)[C@]2(C)O1 | 
